# Assay results as given in patent US8501977B2, “Platinum complex and pharmaceutical composition containing the same” (Unitech Co., Ltd., priority 2008, dated 2013).
# “Also recorded” adds a separate entry of the source.
# Tests used:
# [1] = system: KP-1N (human pancreas cancer cell); test: MTS cell proliferation test, KP-1N (Embodiment 8); type: cell-based
# Protocol: (§1) Respectively, the S medicine test solution was prepared by dissolving the ((S,S,S) cis,cis-spiro[4,4]nonane-1,6-diamine)oxalatoplatinum(II) complex (compound 2; hereinafter, it is described as S medicine) into the dimethylsulfoxide (DMSO) with the concentration of 10 mg/ml and the R medicine test solution was prepared by dissolving the ((R,R,R)cis,cis-spiro[4,4]nonane-1,6-diamine) oxalatoplatinum(II) complex (compound 3; hereinafter, it is described as R medicine) into the dimethylsulfoxide (DMSO) with the concentration of 10 mg/ml.
# (§2) The test was performed by using A549 (human lung cancer cell), LU65A (human lung cancer cell), RERF-LC-MA (human lung cancer cell), LU99 (human lung cancer cell), H460 (human lung cancer cell), HCT116 (human colon cancer cell), HT-29 (human colon cancer cell), MKN-45 (human gastric cancer cell), MKN-1 (human gastric cancer cell), U937 (human lymphoma cell), KP-1N (human pancreas cancer cell) and B2452 (human mesotheliama cell) as the cancer cell.
# (§3) These cells were suspended in the each culture medium that the serum of 10% was added, and were dispensed in 96-well plate. And then, these were cultured in 5% CO2 at 37 degrees centigrade during a night. Next day, the S medicine test solution and the R medicine test solution were prepared in the culture medium to the various concentrations (5, 10, 20 μg/ml), and were dispensed into the plates that the cells were set preliminarily. And further, these were cultured in 5% CO2 at 37 degrees centigrade for three days.
# (§4) The cell proliferation after the medicine addition was measured on the 3rd day from the 1st day after the medicine addition by the MTS method (kit for cell proliferation test manufactured by Promega Company).
# (§5) The inhibition rate (%) of the cell proliferation was obtained from the measured MTS value by the following formula. Inhibition rate(%)=(1-MTS value of medicine addition group/MTS value of medicine non-addition group)×100
# (§6) Because the value which was obtained by the above-mentioned formula represents the inhibition rate of the cell proliferation, the higher the numerical value is, the higher the medicine effect is. It is desired that the one whose value is 50% or more has the medicine effect.
# [2] = system: H2452 cell (human mesothelicana cell); test: MTS cell proliferation test, H2452 (Embodiment 8); type: cell-based
# Protocol: as §1, §2, §3, §4, §5, §6
# [3] = system: HCT116 (human colon cancer cell); test: MTS cell proliferation test, HCT116 (Embodiment 8); type: cell-based
# Protocol: as §1, §2, §3, §4, §5, §6
# [4] = system: H460 (human lung cancer cell); test: MTS cell proliferation test, H460 (Embodiment 8); type: cell-based
# Protocol: as §1, §2, §3, §4, §5, §6
# [5] = system: LU65A (human lung cancer cell); test: MTS cell proliferation test, LU65A (Embodiment 8); type: cell-based
# Protocol: as §1, §2, §3, §4, §5, §6
# [6] = system: U937 (human lymphoma cell); test: MTS cell proliferation test, U937 (Embodiment 8); type: cell-based
# Protocol: as §1, §2, §3, §4, §5, §6
# [7] = system: MKN-1 (human gastric cancer cell); test: MTS cell proliferation test, MKN-1 (Embodiment 8); type: cell-based
# Protocol: as §1, §2, §3, §4, §5, §6
# [8] = system: MKN-45 (human gastric cancer cell); test: MTS cell proliferation test, MKN-45 (Embodiment 8); type: cell-based
# Protocol: as §1, §2, §3, §4, §5, §6
# [9] = system: LU99 (human lung cancer cell); test: MTS cell proliferation test, LU99 (Embodiment 8); type: cell-based
# Protocol: as §1, §2, §3, §4, §5, §6
# [10] = system: U937 (human lymphoma cell); test: MTS cell proliferation test, U937 (Embodiment 7); type: cell-based
# Protocol: The test solution was prepared by dissolving the (compound 1) into the dimethylsulfoxide ([…]) with the concentration of 8 mg/ml.
# The test was performed by using the U937 (human lymphoma cell) as the cancer cell and using the HEK293 (human fetus kidney cell) as the normal cell.
# These cells were suspended in the each culture medium that the serum of 10% was added, and were dispensed in 96-well plate. And then, these were cultured in 5% CO2 at 37 degrees centigrade during a night. Next day, the test solution was prepared in the culture medium to the various concentrations (0, 4, 8, 16 μg/ml), and was dispensed into the plate that the cells were set preliminarily. And further, these were cultured in 5% CO2 at 37 degrees centigrade for three days.
# The cell proliferation after the medicine addition was measured on the 3rd day from the 1st day after the medicine addition by the […] (Kit for cell proliferation test manufactured by Promega Company).
# as §5
# Because the value which was obtained by the above-mentioned formula represents the inhibition rate of the cell proliferation, the higher the numerionl value is, the higher the medicine effect is. It is deemed that the one whose value is 50% or more has the medicine effect.
# [11] = system: A549 (human lung cancer cell); test: MTS cell proliferation test, A549 (Embodiment 8); type: cell-based
# Protocol: as §1, §2, §3, §4, §5, §6
# [12] = system: HT-29 (human colon cancer cell); test: MTS cell proliferation test, HT-29 (Embodiment 8); type: cell-based
# Protocol: as §1, §2, §3, §4, §5, §6
# [13] = system: RERF-LC-MA (human lung cancer cell); test: MTS cell proliferation test, RERF-LC-MA (Embodiment 8); type: cell-based
# Protocol: as §1, §2, §3, §4, §5, §6
# tumor cells = test: MTS cell proliferation test, all cancer cells of Embodiment 8; type: cell-based, human; conditions: summary of Table 2 in words
# Protocol: as §1
# as §2, with “cell. […]” for “cell.”
# as §4
# The inhibition rate (%) of the cell proliferation was obtained from the measured MTS value by the following formula. […]
SMILES,Inhibition rate of cell proliferation after 3 days from medicine addition (%) ([1]; 10 μg/ml),Inhibition rate of cell proliferation after 3 days from medicine addition (%) ([1]; 20 μg/ml),"Inhibition rate of cell proliferation after 3 days from medicine addition (%) ([2]; H2452, 10 μg/ml)","Inhibition rate of cell proliferation after 3 days from medicine addition (%) ([2]; H2452, 20 μg/ml)","Inhibition rate of cell proliferation after 3 days from medicine addition (%) ([3]; HCT116, 10 μg/ml)","Inhibition rate of cell proliferation after 3 days from medicine addition (%) ([3]; HCT116, 20 μg/ml)","Inhibition rate of cell proliferation after 3 days from medicine addition (%) ([4]; H460, 10 μg/ml)","Inhibition rate of cell proliferation after 3 days from medicine addition (%) ([4]; H460, 20 μg/ml)",Inhibition rate of cell proliferation after 3 days from medicine addition (%) ([5]; 10 μg/ml),Inhibition rate of cell proliferation after 3 days from medicine addition (%) ([5]; 20 μg/ml),"Inhibition rate of cell proliferation after 3 days from medicine addition (%) ([6]; U937, 10 μg/ml)","Inhibition rate of cell proliferation after 3 days from medicine addition (%) ([6]; U937, 20 μg/ml)","Inhibition rate of cell proliferation after 3 days from medicine addition (%) ([7]; MKN-1, 10 μg/ml)","Inhibition rate of cell proliferation after 3 days from medicine addition (%) ([7]; MKN-1, 20 μg/ml)","Inhibition rate of cell proliferation after 3 days from medicine addition (%) ([8]; MKN-45, 10 μg/ml)","Inhibition rate of cell proliferation after 3 days from medicine addition (%) ([8]; MKN-45, 20 μg/ml)","Inhibition rate of cell proliferation after 3 days from medicine addition (%) ([9]; LU99, 10 μg/ml)","Inhibition rate of cell proliferation after 3 days from medicine addition (%) ([9]; LU99, 20 μg/ml)","Inhibition rate of cell proliferation after 3 days from medicine addition (%) ([11]; A549, 10 μg/ml)","Inhibition rate of cell proliferation after 3 days from medicine addition (%) ([11]; A549, 20 μg/ml)",also measured
"O=C1[O][Pt]2([NH][C@@H]3CCCC[C@H]3[NH]2)[O]C1=O [oxaliplatin, reference compound]",Δ (Δ: 26~50%),◯ (◯: 51~75%),Δ (Δ: 26~50%),Δ (Δ: 26~50%),◯ (◯: 51~75%),◯ (◯: 51~75%),Δ (Δ: 26~50%),Δ (Δ: 26~50%),Δ (Δ: 26~50%),◯ (◯: 51~75%),⊚ (⊚: 76~100%),⊚ (⊚: 76~100%),◯ (◯: 51~75%),⊚ (⊚: 76~100%),⊚ (⊚: 76~100%),⊚ (⊚: 76~100%),◯ (◯: 51~75%),◯ (◯: 51~75%),X (X: 0~25%),Δ (Δ: 26~50%),"Inhibition rate of cell proliferation for 1st to 3rd day from medicine addition (%) ([10]; U937, 4 μg/ml, 1st day): −5%; Inhibition rate of cell proliferation for 1st to 3rd day from medicine addition (%) ([10]; U937, 4 μg/ml, 2nd day): −26%; Inhibition rate of cell proliferation for 1st to 3rd day from medicine addition (%) ([10]; U937, 4 μg/ml, 3rd day): 12%; Inhibition rate of cell proliferation for 1st to 3rd day from medicine addition (%) ([10]; U937, 8 μg/ml, 1st day): −1%; Inhibition rate of cell proliferation for 1st to 3rd day from medicine addition (%) ([10]; U937, 8 μg/ml, 2nd day): −5%; Inhibition rate of cell proliferation for 1st to 3rd day from medicine addition (%) ([10]; U937, 8 μg/ml, 3rd day): 37%; Inhibition rate of cell proliferation for 1st to 3rd day from medicine addition (%) ([10]; U937, 16 μg/ml, 1st day): 0%; Inhibition rate of cell proliferation for 1st to 3rd day from medicine addition (%) ([10]; U937, 16 μg/ml, 2nd day): 30%; Inhibition rate of cell proliferation for 1st to 3rd day from medicine addition (%) ([10]; U937, 16 μg/ml, 3rd day): 73%; medicine effect in the cancer cell (U937) ([10]; U937, summary of Table 1 in words): medicine effect was also recognized; Inhibition rate of cell proliferation after 3 days from medicine addition (%) ([12]; HT-29, 10 μg/ml): Δ (Δ: 26~50%); Inhibition rate of cell proliferation after 3 days from medicine addition (%) ([12]; HT-29, 20 μg/ml): Δ (Δ: 26~50%); Inhibition rate of cell proliferation after 3 days from medicine addition (%) ([13]; 10 μg/ml): X (X: 0~25%); Inhibition rate of cell proliferation after 3 days from medicine addition (%) ([13]; 20 μg/ml): X (X: 0~25%)"
"NC1CCCC12CCCC2N.O=C1[O][Pt][O]C1=O [R medicine, ((R,R,R)cis,cis-spiro[4,4]nonane-1,6-diamine) oxalatoplatinum(II) complex]",⊚ (⊚: 76~100%),⊚ (⊚: 76~100%),◯ (◯: 51~75%),◯ (◯: 51~75%),⊚ (⊚: 76~100%),⊚ (⊚: 76~100%),⊚ (⊚: 76~100%),⊚ (⊚: 76~100%),⊚ (⊚: 76~100%),⊚ (⊚: 76~100%),⊚ (⊚: 76~100%),⊚ (⊚: 76~100%),⊚ (⊚: 76~100%),⊚ (⊚: 76~100%),⊚ (⊚: 76~100%),⊚ (⊚: 76~100%),⊚ (⊚: 76~100%),⊚ (⊚: 76~100%),◯ (◯: 51~75%),◯ (◯: 51~75%),"Inhibition rate of cell proliferation after 3 days from medicine addition (%) ([1]; 5 μg/ml): ◯ (◯: 51~75%); Inhibition rate of cell proliferation after 3 days from medicine addition (%) ([2]; H2452, 5 μg/ml): Δ (Δ: 26~50%); Inhibition rate of cell proliferation after 3 days from medicine addition (%) ([3]; HCT116, 5 μg/ml): ◯ (◯: 51~75%); Inhibition rate of cell proliferation after 3 days from medicine addition (%) ([4]; H460, 5 μg/ml): ◯ (◯: 51~75%); Inhibition rate of cell proliferation after 3 days from medicine addition (%) ([5]; 5 μg/ml): ⊚ (⊚: 76~100%); Inhibition rate of cell proliferation after 3 days from medicine addition (%) ([6]; U937, 5 μg/ml): ⊚ (⊚: 76~100%); Inhibition rate of cell proliferation after 3 days from medicine addition (%) ([7]; MKN-1, 5 μg/ml): ⊚ (⊚: 76~100%); Inhibition rate of cell proliferation after 3 days from medicine addition (%) ([8]; MKN-45, 5 μg/ml): ⊚ (⊚: 76~100%); Inhibition rate of cell proliferation after 3 days from medicine addition (%) ([9]; LU99, 5 μg/ml): ⊚ (⊚: 76~100%); Inhibition rate of cell proliferation after 3 days from medicine addition (%) ([11]; A549, 5 μg/ml): Δ (Δ: 26~50%); Inhibition rate of cell proliferation after 3 days from medicine addition (%) ([12]; HT-29, 5 μg/ml): ◯ (◯: 51~75%); Inhibition rate of cell proliferation after 3 days from medicine addition (%) ([12]; HT-29, 10 μg/ml): ◯ (◯: 51~75%); Inhibition rate of cell proliferation after 3 days from medicine addition (%) ([12]; HT-29, 20 μg/ml): ⊚ (⊚: 76~100%); medicine effect for the many tumor cells (tumor cells): high medicine effect compared with the oxaliplatin; also recorded: higher in the effect; Inhibition rate of cell proliferation after 3 days from medicine addition (%) ([13]; 5 μg/ml): Δ (Δ: 26~50%); Inhibition rate of cell proliferation after 3 days from medicine addition (%) ([13]; 10 μg/ml): ◯ (◯: 51~75%); Inhibition rate of cell proliferation after 3 days from medicine addition (%) ([13]; 20 μg/ml): ◯ (◯: 51~75%)"
